Measured values published in the supplement of paper PMC10307832.

Experiments:
Test in all cases: relative viability (nuclei count vs DMSO), 5 days (fraction); higher = more cells survive
[1] = compound: CN[C@@H]1C[C@H]2O[C@@](C)([C@@H]1OC)n1c3ccccc3c3c4c(c5c6ccccc6n2c5c31)C(=O)NC4 [Staurosporine] + Nc1nc2[nH]cc(CCc3ccc(C(=O)N[C@@H](CCC(=O)O)C(=O)O)cc3)c2c(=O)[nH]1 [Pemetrexed] (partner 0.2 µM)
Summary of the method: (§1)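 Lung cancer cell lines, seeded in 1536-well plates, were treated the following day by pin tool with a single drug or with five library-drug doses (not always all listed) in √10 steps on top of a fixed anchor-drug dose. Cells were fixed and nuclei stained in one step after 5 days, and nuclei were counted. Relative viability is the nuclei count for treated wells divided by that for vehicle wells, reported as medians of duplicate plates.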

[2] = compound: CN[C@@H]1C[C@H]2O[C@@](C)([C@@H]1OC)n1c3ccccc3c3c4c(c5c6ccccc6n2c5c31)C(=O)NC4 [Staurosporine] + CC(=O)c1c(C)c2cnc(Nc3ccc(N4CCNCC4)cn3)nc2n(C2CCCC2)c1=O [Palbociclib] (partner 0.5 µM)
Summary of the method: as §1

[3] = compound: CC1=C(CC(=O)O)c2cc(F)ccc2/C1=C\c1ccc([S+](C)[O-])cc1 [Sulindac] + Cc1nc(Nc2ncc(C(=O)Nc3c(C)cccc3Cl)s2)cc(N2CCN(CCO)CC2)n1 [Dasatinib] (partner 0.075 µM)
Summary of the method: as §1

[4] = compound: CN[C@@H]1C[C@H]2O[C@@](C)([C@@H]1OC)n1c3ccccc3c3c4c(c5c6ccccc6n2c5c31)C(=O)NC4 [Staurosporine] + CC1(C)CCC(c2ccc(Cl)cc2)=C(CN2CCN(c3ccc(C(=O)NS(=O)(=O)c4ccc(N[C@H](CCN5CCOCC5)CSc5ccccc5)c(S(=O)(=O)C(F)(F)F)c4)cc3)CC2)C1 [Navitoclax] (partner 0.5 µM)
Summary of the method: as §1

Row | Cell Line | relative viability ([1]; first compound 0.005 µM) | relative viability ([1]; first compound 0.05 µM) | relative viability ([1]; first compound 0.1581 µM) | relative viability ([1]; first compound 0.5 µM) | relative viability ([2]; first compound 0.005 µM) | relative viability ([2]; first compound 0.05 µM) | relative viability ([2]; first compound 0.1581 µM) | relative viability ([2]; first compound 0.5 µM) | relative viability ([3]; first compound 0.08 µM) | relative viability ([3]; first compound 0.253 µM) | relative viability ([3]; first compound 0.8 µM) | relative viability ([3]; first compound 2.53 µM) | relative viability ([3]; first compound 8 µM) | relative viability ([4]; first compound 0.005 µM) | relative viability ([4]; first compound 0.01581 µM) | relative viability ([4]; first compound 0.05 µM) | relative viability ([4]; first compound 0.1581 µM) | relative viability ([4]; first compound 0.5 µM) | relative viability ([1]; first compound 0.01581 µM) | relative viability ([2]; first compound 0.01581 µM)
1 | 201T | 0.339 | 0.261 | 0.253 | 0.214 | 0.362 | 0.329 | 0.274 | 0.285 | 0.662 | 0.585 | 0.526 | 0.559 | 0.587 | 1.24 | 1.18 | 1.06 | 0.983 | 0.761 | – | –
2 | A549 | – | – | – | – | – | – | – | – | – | – | – | – | – | 0.616 | 0.385 | 0.123 | 0.0294 | 0.0297 | – | –
3 | A-427 | 0.633 | 0.335 | 0.209 | 0.175 | 0.509 | 0.346 | 0.246 | 0.193 | 0.92 | 0.76 | 0.547 | 0.714 | 0.755 | 0.943 | 0.639 | 0.254 | 0.204 | – | 0.58 | 0.425
4 | ABC-1 | – | – | – | – | – | 0.226 | 0.258 | 0.193 | 0.506 | 0.53 | 0.434 | – | 0.673 | – | – | – | – | – | – | 0.224
5 | BEN | 0.831 | 0.523 | 0.261 | 0.303 | 0.553 | 0.397 | 0.446 | 0.295 | 0.311 | 0.317 | 0.314 | 0.288 | 0.384 | 0.0665 | 0.0904 | 0.0865 | 0.0456 | 0.042 | 0.749 | 0.478
6 | CAL-12T | 0.345 | 0.229 | 0.191 | 0.124 | 0.196 | 0.107 | 0.142 | 0.122 | 0.317 | 0.391 | 0.324 | 0.371 | 0.341 | 0.285 | 0.314 | 0.152 | 0.13 | 0.0943 | 0.248 | 0.138
7 | COR-L23 | 0.191 | 0.161 | 0.135 | 0.0959 | 0.218 | 0.117 | 0.103 | 0.0791 | 0.478 | 0.419 | 0.438 | 0.489 | 0.744 | 0.511 | 0.3 | 0.17 | 0.0578 | 0.0582 | 0.151 | 0.109
8 | COR-L 105 | 0.655 | 0.52 | 0.428 | 0.293 | 0.365 | 0.313 | 0.282 | 0.246 | 0.307 | 0.42 | 0.305 | 0.291 | 0.393 | 0.573 | 0.275 | 0.258 | 0.272 | 0.242 | 0.554 | 0.334
9 | Calu-6 | – | – | – | – | – | – | – | – | – | – | – | – | – | 0.656 | 0.321 | 0.233 | 0.0847 | 0.0708 | – | –
10 | ChaGo-K-1 | 0.262 | 0.251 | 0.141 | 0.163 | 0.886 | 0.811 | 0.696 | 0.701 | 0.597 | 0.618 | 0.64 | 0.587 | 0.651 | 0.926 | – | 0.79 | 0.29 | 0.27 | – | –
